According to ChEMBL document CHEMBL5136997, “Sulfur-Containing Phenolic Compounds from the Cave Soil-Derived Aspergillus fumigatus GZWMJZ-152” (J Nat Prod, 2022):

Assays:
Format in all cases: functional
[1] = Antioxidant activity assessed as DPPH radical scavenging activity incubated for 30 mins
[2] = Antioxidant activity assessed as AAPH radical scavenging activity at 12.5 uM ORAC assay
PC-12 = assay: Cytoprotective activity against H2O2-induced oxidative injury in rat PC-12 cells assessed as cell viability at 10 uM incubated for 24 hrs (reference value: 46.91 +/- 3.74%); settings: for viability at 10 µM: read-out: Activity

| Compound | IC50 [1] [µM] | Activity (umolequiv/umol) [2] | viability at 10 µM (PC-12) [%] | Activity (PC-12) [%] |
| --- | --- | --- | --- | --- |
| COC(=O)c1c(SC[C@H]2NC(=O)CNC2=O)c(O)cc(OC)c1C(=O)c1c(O)cc(C)cc1OC | > 100 | 0.78 | 54.2 | – |
| COC(=O)c1c2c(cc(OC)c1C(=O)c1c(O)cc(C)cc1OC)O[C@@H](OC)CS2 | > 100 | 0.08 | – | – |
| COC(=O)c1c(C(=O)c2c(O)cc(C)cc2OC)c(OC)cc(O)c1[S+](C)[O-] (racemic) | > 100 | 1.73 | 62.4 | – |
| COc1c(O)c(O)c(C)c2sc(CO)nc12 | 23.7 | 0.66 | 43.2 | – |
| COC(=O)c1c2c(cc(OC)c1C(=O)c1c(O)cc(C)cc1OC)OC(OC)CS2 (racemic) | > 100 | 0.03 | 63.2 | – |
| COC1=CC(=O)C(C)=C(O)C1=O | 17.3 | 0.67 | 50 | – |
| COc1c(O)c(O)c(C)c2scnc12 | 3.45 | 0.73 | 47.9 | – |
| O=C1O[C@H]([C@@H](O)CO)C(O)=C1O [ASCORBIC ACID] | 11.9 | – | – | – |
| COC(=O)c1c(C(=O)c2c(O)cc(C)cc2OC)c(OC)cc(O)c1[S@+](C)[O-] | > 100 | 1.59 | – | – |
| VITAMIN E | – | – | – | 57.7 |
| COC(=O)c1c2c(cc(OC)c1C(=O)c1c(O)cc(C)cc1OC)O[C@H](OC)CS2 | > 100 | 0.02 | – | – |
| COC(=O)CSc1c(O)cc(OC)c(C(=O)c2c(O)cc(C)cc2OC)c1C(=O)OC | > 100 | 1.65 | 49.1 | – |
| COC(=O)c1cc(O)cc(OC)c1C(=O)c1c(O)cc(C)cc1OC | > 100 | 1.55 | 51.7 | – |
| COC(=O)c1c(C(=O)c2c(O)cc(C)cc2OC)c(OC)cc(O)c1[S@@+](C)[O-] | > 100 | 1.76 | – | – |
